Reference: PMC9147192, “Small Molecule Arranged Thermal Proximity Coaggregation (smarTPCA)—A Novel Approach to Characterize Protein–Protein Interactions in Living Cells by Similar Isothermal Dose–Responses” (International Journal of Molecular Sciences, 2022)

Experiments:
MAPKAPK2 = MAPKAPK2 (Homo sapiens, UniProt P49137); test: TPP-CCR in living HL-60 cells; conditions: […] °C, TMT-MS
MRPS34 = MRPS34 (Homo sapiens, UniProt P82930); test: TPP-CCR in living HL-60 cells
MTMR1 = MTMR1 (Homo sapiens, UniProt Q13613); test: TPP-CCR in living HL-60 cells
NOP2 = biological target: T1, NOP2 (Homo sapiens, UniProt P46087); test: TPP-CCR in living HL-60 cells; format: cell-based
T1 construct: dose–responses (mean over replicates), derived from TPP-CCR experiments in living cells; endogenous in cells; host or cells: HL-60 cells (ATCC No. CCL-240)
T1 sequence (P46087 1-812): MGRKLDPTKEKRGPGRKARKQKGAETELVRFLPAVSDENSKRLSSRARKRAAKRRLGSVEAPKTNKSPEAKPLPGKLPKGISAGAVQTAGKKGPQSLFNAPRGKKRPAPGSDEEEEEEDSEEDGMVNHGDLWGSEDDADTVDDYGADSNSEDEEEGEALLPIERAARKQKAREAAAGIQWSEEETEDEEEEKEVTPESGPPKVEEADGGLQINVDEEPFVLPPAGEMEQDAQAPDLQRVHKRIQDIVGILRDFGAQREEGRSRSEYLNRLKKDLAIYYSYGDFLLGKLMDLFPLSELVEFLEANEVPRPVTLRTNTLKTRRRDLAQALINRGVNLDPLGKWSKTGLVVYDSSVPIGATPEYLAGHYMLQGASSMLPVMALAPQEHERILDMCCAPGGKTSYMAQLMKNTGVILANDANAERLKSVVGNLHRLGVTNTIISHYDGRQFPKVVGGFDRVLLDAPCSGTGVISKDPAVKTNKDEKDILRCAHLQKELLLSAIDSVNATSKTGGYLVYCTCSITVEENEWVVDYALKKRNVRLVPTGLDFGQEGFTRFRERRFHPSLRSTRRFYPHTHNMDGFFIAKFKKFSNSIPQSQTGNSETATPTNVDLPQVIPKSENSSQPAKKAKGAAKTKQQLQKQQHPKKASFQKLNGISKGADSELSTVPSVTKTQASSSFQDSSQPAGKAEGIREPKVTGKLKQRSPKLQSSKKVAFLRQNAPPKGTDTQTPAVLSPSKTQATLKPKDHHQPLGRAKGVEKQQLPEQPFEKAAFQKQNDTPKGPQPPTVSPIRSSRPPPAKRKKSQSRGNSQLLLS

MYLK = test system: MYLK; set-up: method as in PMID 23398362; conditions: cited from earlier work
MAPK14 = conditions: cited from earlier work
[1] = living HL-60 cells, […] °C, TMT-MS

MAPKAPK2, sequence (P49137 whole entry): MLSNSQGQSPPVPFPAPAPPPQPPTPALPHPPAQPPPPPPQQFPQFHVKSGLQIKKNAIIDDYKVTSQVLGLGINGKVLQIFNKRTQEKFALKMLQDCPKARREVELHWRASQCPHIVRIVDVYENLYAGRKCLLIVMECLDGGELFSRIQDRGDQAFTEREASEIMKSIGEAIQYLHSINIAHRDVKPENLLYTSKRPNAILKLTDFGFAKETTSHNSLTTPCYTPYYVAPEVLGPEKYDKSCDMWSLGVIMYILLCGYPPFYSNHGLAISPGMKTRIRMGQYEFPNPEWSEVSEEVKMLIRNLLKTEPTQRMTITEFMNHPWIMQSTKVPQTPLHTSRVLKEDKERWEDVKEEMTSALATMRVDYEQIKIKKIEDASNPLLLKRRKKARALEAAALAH
MAPKAPK2, sequence (Q16539 2-360 partner limits assumed): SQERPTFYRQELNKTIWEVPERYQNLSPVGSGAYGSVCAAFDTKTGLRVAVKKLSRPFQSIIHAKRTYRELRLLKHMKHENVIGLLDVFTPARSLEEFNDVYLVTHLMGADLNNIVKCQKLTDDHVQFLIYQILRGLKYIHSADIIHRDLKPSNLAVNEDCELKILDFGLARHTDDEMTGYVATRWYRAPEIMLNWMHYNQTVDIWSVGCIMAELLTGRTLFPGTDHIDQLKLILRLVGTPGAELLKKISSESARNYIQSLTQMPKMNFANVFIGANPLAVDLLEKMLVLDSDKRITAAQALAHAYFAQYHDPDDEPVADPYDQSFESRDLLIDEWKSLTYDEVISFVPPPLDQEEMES

Cn1c(NC[C@@H](N)Cc2ccccc2)nc(-c2ccncc2)c(-c2ccc3ccccc3c2)c1=O [AMG-548]
Hill slope (MAPKAPK2) (MAPKAPK2): 0.72 | EC50 (MRPS34): 60.3 nM | Hill slope (MRPS34) (MRPS34; [1]): 0.26 | EC50 (MTMR1): 105 nM | Hill slope (MTMR1) (MTMR1; [1]): 0.38

Cc1cnc(Nc2ccc(F)cc2Cl)nc1-c1c[nH]c(C(=O)N[C@H](CO)c2cccc(Cl)c2)c1 [ERK 11e]
Hill slope (NOP2; TPP-CCR, living cells, NOP2): 0.29 | Hill slope (NOP2) (NOP2; [1]): 0.29 | EC50 (NOP2; living HL-60 cells, […] °C, TMT-MS, read-out: pEC50 (NOP2) (converted)): 105 nM

C[S+]([O-])c1ccc(-c2nc(-c3ccncc3)c(-c3ccc(F)cc3)[nH]2)cc1 (stereo not shown) [SB203580]
activity against MYLK (MYLK): inactivity | activity against MAPK14 (MAPK14): high activity
